Reference: US20210267944A1 (BioXcel Therapeutics, Inc., priority 2018, published 2021)
Where a name gives a salt, the structure may show the parent alone. Read-outs that look alike come from different tables or passages of the source.

Settings: for Diastolic blood pressure Mean ± SD / Diastolic blood pressure Median / Diastolic blood pressure Min / Heart rate Max / Heart rate Mean ± SD / Heart rate Median / Heart rate Min / Diastolic blood pressure Max / Systolic blood pressure, Max / Systolic blood pressure, Mean ± SD / Systolic blood pressure, Median / Systolic blood pressure, Min: opioid withdrawal patients
Text: The participants were continuously monitored by the site personnel, including blood pressure and heart rate, from the start of the infusion through resolution of sedation and/or any adverse effects on blood pressure or heart rate. An electrocardiogram was obtained at screening, pre-infusion and upon resolution of sedation, a predetermined reduction in COWS or return to baseline.

[1] = Day-1, 30 min. post Infusion, n=11
[2] = Day-2, 30 min. post Infusion, n=5
[3] = opioid withdrawal, during infusion

Cc1cccc([C@H](C)c2cnc[nH]2)c1C [dexmedetomidine hydrochloride]
Diastolic blood pressure Mean ± SD (Day-2, 01:15 Hr): 78.5 ± 22.5 mm of Hg
Diastolic blood pressure Median (Day-2, 01:15 Hr): 78.5 mm of Hg
Diastolic blood pressure Min (Day-2, 01:15 Hr): 56 mm of Hg
Heart rate Max (Day-2, 01:15 Hr): 100 beats/minutes
Heart rate Mean ± SD (Day-2, 01:15 Hr): 88 ± 12 beats/minutes
Heart rate Median (Day-2, 01:15 Hr): 88 beats/minutes
Heart rate Min (Day-2, 01:15 Hr): 76 beats/minutes
Diastolic blood pressure Max (Day-2, 01:30 Hr): 75 mm of Hg
Diastolic blood pressure Mean ± SD (Day-2, 01:30 Hr): 75 mm of Hg
Diastolic blood pressure Median (Day-2, 01:30 Hr): 75 mm of Hg
Diastolic blood pressure Min (Day-2, 01:30 Hr): 75 mm of Hg
Heart rate Max (Day-2, 01:30 Hr): 73 beats/minutes
Heart rate Mean ± SD (Day-2, 01:30 Hr): 73 beats/minutes
Heart rate Median (Day-2, 01:30 Hr): 73 beats/minutes
Heart rate Min (Day-2, 01:30 Hr): 73 beats/minutes
Diastolic blood pressure Max (Day-2, 01:45 Hr): 89 mm of Hg
Diastolic blood pressure Mean ± SD (Day-2, 01:45 Hr): 89 mm of Hg
Diastolic blood pressure Median (Day-2, 01:45 Hr): 89 mm of Hg
Diastolic blood pressure Min (Day-2, 01:45 Hr): 89 mm of Hg
Heart rate Max (Day-2, 01:45 Hr): 92 beats/minutes
Heart rate Mean ± SD (Day-2, 01:45 Hr): 92 beats/minutes
Heart rate Median (Day-2, 01:45 Hr): 92 beats/minutes
Heart rate Min (Day-2, 01:45 Hr): 92 beats/minutes
Diastolic blood pressure Max (Day-2, 02:00 Hr): 90 mm of Hg
Diastolic blood pressure Mean ± SD (Day-2, 02:00 Hr): 90 mm of Hg
Diastolic blood pressure Median (Day-2, 02:00 Hr): 90 mm of Hg
Diastolic blood pressure Min (Day-2, 02:00 Hr): 90 mm of Hg
Heart rate Max (Day-2, 02:00 Hr): 94 beats/minutes
Heart rate Mean ± SD (Day-2, 02:00 Hr): 94 beats/minutes
Heart rate Median (Day-2, 02:00 Hr): 94 beats/minutes
Heart rate Min (Day-2, 02:00 Hr): 94 beats/minutes
Diastolic blood pressure Max (Day-2, 30 min. post Infusion): 98 mm of Hg
Diastolic blood pressure Mean ± SD (Day-2, 30 min. post Infusion): 84.4 ± 9.24 mm of Hg
Diastolic blood pressure Median (Day-2, 30 min. post Infusion): 86 mm of Hg
Diastolic blood pressure Min (Day-2, 30 min. post Infusion): 70 mm of Hg
Heart rate Max (Day-2, 30 min. post Infusion): 90 beats/minutes
Heart rate Mean ± SD (Day-2, 30 min. post Infusion): 70.8 ± 15.72 beats/minutes
Heart rate Median (Day-2, 30 min. post Infusion): 60 beats/minutes
Heart rate Min (Day-2, 30 min. post Infusion): 56 beats/minutes
all the vital signs values (opioid withdrawal): within clinically acceptable limits
Systolic blood pressure, Max (Day-1, 00:00 Hr, n=11): 178 mm of Hg
Systolic blood pressure, Mean ± SD (Day-1, 00:00 Hr, n=11): 134 ± 15.77 mm of Hg
Systolic blood pressure, Median (Day-1, 00:00 Hr, n=11): 127 mm of Hg
Systolic blood pressure, Min (Day-1, 00:00 Hr, n=11): 120 mm of Hg
Systolic blood pressure, Max (Day-1, 00:15 Hr, n=11): 157 mm of Hg
Systolic blood pressure, Mean ± SD (Day-1, 00:15 Hr, n=11): 129.73 ± 13.68 mm of Hg
Systolic blood pressure, Median (Day-1, 00:15 Hr, n=11): 127 mm of Hg
Systolic blood pressure, Min (Day-1, 00:15 Hr, n=11): 112 mm of Hg
Systolic blood pressure, Max (Day-1, 00:30 Hr, n=9): 160 mm of Hg
Systolic blood pressure, Mean ± SD (Day-1, 00:30 Hr, n=9): 124.78 ± 15.55 mm of Hg
Systolic blood pressure, Median (Day-1, 00:30 Hr, n=9): 128 mm of Hg
Systolic blood pressure, Min (Day-1, 00:30 Hr, n=9): 107 mm of Hg
Systolic blood pressure, Max (Day-1, 00:45 Hr, n=6): 125 mm of Hg
Systolic blood pressure, Mean ± SD (Day-1, 00:45 Hr, n=6): 113 ± 8.24 mm of Hg
Systolic blood pressure, Median (Day-1, 00:45 Hr, n=6): 114 mm of Hg
Systolic blood pressure, Min (Day-1, 00:45 Hr, n=6): 100 mm of Hg
Systolic blood pressure, Max (Day-1, 01:00 Hr, n=5): 120 mm of Hg
Systolic blood pressure, Mean ± SD (Day-1, 01:00 Hr, n=5): 114 ± 4.85 mm of Hg
Systolic blood pressure, Median (Day-1, 01:00 Hr, n=5): 115 mm of Hg
Systolic blood pressure, Min (Day-1, 01:00 Hr, n=5): 107 mm of Hg
Systolic blood pressure, Max (Day-1, 01:15 Hr, n=3): 112 mm of Hg
Systolic blood pressure, Mean ± SD (Day-1, 01:15 Hr, n=3): 110 ± 1.63 mm of Hg
Systolic blood pressure, Median (Day-1, 01:15 Hr, n=3): 110 mm of Hg
Systolic blood pressure, Min (Day-1, 01:15 Hr, n=3): 108 mm of Hg
Systolic blood pressure, Max (Day-1, 01:30 Hr, n=2): 112 mm of Hg
Systolic blood pressure, Mean ± SD (Day-1, 01:30 Hr, n=2): 106.5 ± 5.5 mm of Hg
Systolic blood pressure, Median (Day-1, 01:30 Hr, n=2): 106.5 mm of Hg
Systolic blood pressure, Min (Day-1, 01:30 Hr, n=2): 101 mm of Hg
Systolic blood pressure, Max [1]: 160 mm of Hg
Systolic blood pressure, Mean ± SD [1]: 130.91 ± 18.09 mm of Hg
Systolic blood pressure, Median [1]: 129 mm of Hg
Systolic blood pressure, Min [1]: 108 mm of Hg
Systolic blood pressure, Max (Day-1, Screening, n=11): 170 mm of Hg
Systolic blood pressure, Mean ± SD (Day-1, Screening, n=11): 130.36 ± 16.92 mm of Hg
Systolic blood pressure, Median (Day-1, Screening, n=11): 127 mm of Hg
Systolic blood pressure, Min (Day-1, Screening, n=11): 110 mm of Hg
Systolic blood pressure, Max (Day-2, 00:00 Hr, n=5): 141 mm of Hg
Systolic blood pressure, Mean ± SD (Day-2, 00:00 Hr, n=5): 127.2 ± 11.37 mm of Hg
Systolic blood pressure, Median (Day-2, 00:00 Hr, n=5): 133 mm of Hg
Systolic blood pressure, Min (Day-2, 00:00 Hr, n=5): 109 mm of Hg
Systolic blood pressure, Max (Day-2, 00:15 Hr, n=5): 139 mm of Hg
Systolic blood pressure, Mean ± SD (Day-2, 00:15 Hr, n=5): 123.6 ± 13.41 mm of Hg
Systolic blood pressure, Median (Day-2, 00:15 Hr, n=5): 131 mm of Hg
Systolic blood pressure, Min (Day-2, 00:15 Hr, n=5): 103 mm of Hg
Systolic blood pressure, Max (Day-2, 00:30 Hr, n=5): 137 mm of Hg
Systolic blood pressure, Mean ± SD (Day-2, 00:30 Hr, n=5): 121.6 ± 12.15 mm of Hg
Systolic blood pressure, Median (Day-2, 00:30 Hr, n=5): 125 mm of Hg
Systolic blood pressure, Min (Day-2, 00:30 Hr, n=5): 106 mm of Hg
Systolic blood pressure, Max (Day-2, 00:45 Hr, n=4): 131 mm of Hg
Systolic blood pressure, Mean ± SD (Day-2, 00:45 Hr, n=4): 123.15 ± 9.17 mm of Hg
Systolic blood pressure, Median (Day-2, 00:45 Hr, n=4): 128 mm of Hg
Systolic blood pressure, Min (Day-2, 00:45 Hr, n=4): 108 mm of Hg
Systolic blood pressure, Max (Day-2, 01:00 Hr, n=3): 132 mm of Hg
Systolic blood pressure, Mean ± SD (Day-2, 01:00 Hr, n=3): 124.33 ± 9.46 mm of Hg
Systolic blood pressure, Median (Day-2, 01:00 Hr, n=3): 130 mm of Hg
Systolic blood pressure, Min (Day-2, 01:00 Hr, n=3): 111 mm of Hg
Systolic blood pressure, Max (Day-2, 01:15 Hr, n=2): 130 mm of Hg
Systolic blood pressure, Mean ± SD (Day-2, 01:15 Hr, n=2): 115.5 ± 14.5 mm of Hg
Systolic blood pressure, Median (Day-2, 01:15 Hr, n=2): 115.5 mm of Hg
Systolic blood pressure, Min (Day-2, 01:15 Hr, n=2): 101 mm of Hg
Systolic blood pressure, Mean ± SD (Day-2, 01:30 Hr, n=1): 114 mm of Hg
Systolic blood pressure, Median (Day-2, 01:30 Hr, n=1): 114 mm of Hg
Systolic blood pressure, Mean ± SD (Day-2, 01:45 Hr, n=1): 112 mm of Hg
Systolic blood pressure, Median (Day-2, 01:45 Hr, n=1): 112 mm of Hg
Systolic blood pressure, Mean ± SD (Day-2, 02:00 Hr, n=1): 114 mm of Hg
Systolic blood pressure, Median (Day-2, 02:00 Hr, n=1): 114 mm of Hg
Systolic blood pressure, Max [2]: 146 mm of Hg
Systolic blood pressure, Mean ± SD [2]: 127.6 ± 13.1 mm of Hg
Systolic blood pressure, Median [2]: 130 mm of Hg
Systolic blood pressure, Min [2]: 110 mm of Hg
Diastolic blood pressure mean values, in words [3]: within clinically acceptable limits
Heart rate mean values, in words [3]: within clinically acceptable limits
Systolic blood pressure mean values, in words [3]: within clinically acceptable limits
heart rate at which stopping criteria was met (opioid withdrawal, one patient, after 15 minutes): ≤ 50
